pKd: −log10 of the molar value. Like-named read-outs stand apart in the source and are kept apart here. Where a SMILES comes first, the peptide text is derived from it.
Key:
HLA-A02.01 [1] = biological target: T1, HLA-A02.01 (Homo sapiens, UniProt P04439, D140Y/D185E/D98H/E176V/E277Q/G131W/G231S/I119V/I121R/I166T/I218V/N151K/N90K/P208A/P217A/Q86G/Q94H/R138H/R169H); experiment: Class I MHC peptide binding stability (pMHC-I dissociation, 125I-labeled light chain); settings: for Stability (T1/2 (h)): allele A02.01; for Measured stability: HLA Allele A02.01, time for half of the complexes to dissociate at 37° C.
T1 construct: made in house; host or cells: E. coli

HLA-A02.01 [2] = biological target: HLA-A02.01 (Homo sapiens, UniProt P04439, D140Y/D185E/D98H/E176V/E277Q/G131W/G231S/I119V/I121R/I166T/I218V/L300P/L318F/N151K/N90K/P208A/P217A/Q86G/Q94H/R138H/R169H/T345S); experiment: Class I MHC peptide binding affinity (displacement of radiolabeled reference peptide)
In short: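 Steps: form MHCI complexes carrying labeled reference peptide; add competitor peptides at graded doses; incubate 2 days; separate complex-bound from free label by size-exclusion chromatography and count what remains bound.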

[3] = allele A02.01, read-out: Observed Affinity (IC50, (nM))
[4] = Measured Affinity (nM), HLA Allele A02.01
[5] = Observed Affinity (IC50, (nM)), allele A02.01

| Molecule | Stability (T1/2 (h)) (HLA-A02.01 [1]) [h] | IC50 (HLA-A02.01 [2]; [3]) [nM] | also measured |
| --- | --- | --- | --- |
| CSCC[C@H](NC(=O)[C@H](CCC(=O)O)NC(=O)[C@H](CC(C)C)NC(=O)[C@H](CC(C)C)NC(=O)[C@H](CC(C)C)NC(=O)CN)C(=O)N[C@@H](CC(C)C)C(=O)N[C@@H](CC(=O)O)C(=O)N[C@@H](C)C(=O)O (H-GLLLEMLDA-OH; N-terminus and C-terminus assumed) | 0.4 | 558 | – |
| CC(C)C[C@H](NC(=O)[C@@H](N)CC(C)C)C(=O)N[C@@H](C)C(=O)N[C@@H](Cc1ccccc1)C(=O)N[C@@H](Cc1c[nH]c2ccccc12)C(=O)N[C@@H](CC(=O)O)C(=O)N[C@@H](CO)C(=O)N[C@@H](CCC(N)=O)C(=O)N[C@H](C(=O)O)C(C)C (H-LLAFWDSQV-OH; N-terminus and C-terminus assumed) | 12.8 | 68 | – |
| CSCC[C@H](NC(=O)[C@H](CCC(=O)O)NC(=O)[C@H](CC(C)C)NC(=O)[C@H](CC(C)C)NC(=O)[C@H](CC(C)C)NC(=O)[C@H](CC(=O)O)NC(=O)[C@H](CS)NC(=O)[C@H](CC(C)C)NC(=O)[C@@H]1CCCN1)C(=O)O (H-PLCDLLLEM-OH; N-terminus and C-terminus assumed) | 0.8 | 602 | – |
| CSCC[C@H](NC(=O)[C@@H](N)CO)C(=O)N[C@@H](CC(C)C)C(=O)N[C@H](C(=O)N[C@@H](CC(=O)O)C(=O)N[C@@H](CO)C(=O)N[C@@H](CC(C)C)C(=O)N[C@@H](Cc1ccccc1)C(=O)N[C@@H](CC(C)C)C(=O)O)[C@@H](C)O (H-SMLTDSLFL-OH; N-terminus and C-terminus assumed) | 9.8 | 31 | – |
| CC(C)C[C@H](NC(=O)[C@H](C)N)C(=O)N[C@@H](CO)C(=O)N[C@@H](CCC(=O)O)C(=O)N[C@@H](Cc1c[nH]cn1)C(=O)N[C@@H](CS)C(=O)N1CCC[C@H]1C(=O)N[C@H](C(=O)N[C@H](C(=O)O)[C@@H](C)O)[C@@H](C)O (H-ALSEHCPTT-OH; N-terminus and C-terminus assumed) | 27.3 | 79 | – |
| CC[C@H](C)[C@H](N)C(=O)N[C@@H](CC(C)C)C(=O)N[C@@H](CCSC)C(=O)N[C@@H](CCC(=O)O)C(=O)N[C@@H](CC(C)C)C(=O)N[C@@H](CCSC)C(=O)N[C@@H](C)C(=O)NCC(=O)NCC(=O)O (H-ILMELMAGG-OH; N-terminus and C-terminus assumed) | 0.5 | 223 | – |
| CC(C)C[C@H](NC(=O)[C@H](CO)NC(=O)[C@H](CC(N)=O)NC(=O)[C@H](CS)NC(=O)[C@H](CCC(=O)O)NC(=O)[C@H](Cc1c[nH]cn1)NC(=O)[C@H](CC(C)C)NC(=O)[C@@H](NC(=O)[C@@H](N)CCC(N)=O)C(C)C)C(=O)O | 0.5 | 7770 | – |
| CC(C)C[C@H](N)C(=O)N[C@H](C(=O)N[C@H](C(=O)N[C@H](C(=O)NCC(=O)N[C@@H](C)C(=O)N[C@@H](CS)C(=O)NCC(=O)N[C@H](C(=O)O)C(C)C)C(C)C)C(C)C)C(C)C (H-LVVVGACGV-OH; N-terminus and C-terminus assumed) | 0.6 | – | Measured stability (HLA-A02.01 [1]): 0.6 h; IC50 (HLA-A02.01 [2]; [4]): 667 nM; IC50 (HLA-A02.01 [2]; [5]): 1210 nM |
| CC[C@H](C)[C@H](NC(=O)[C@H](Cc1ccccc1)NC(=O)[C@H](CS)NC(=O)[C@H](CO)NC(=O)[C@H](CC(N)=O)NC(=O)[C@H](CO)NC(=O)[C@H](C)NC(=O)[C@H](CO)NC(=O)[C@H](CC(C)C)NC(=O)[C@H](C)N)C(=O)O (H-ALSASNSCFI-OH; N-terminus and C-terminus assumed) | 0.8 | 226 | – |
| CSCC[C@H](NC(=O)[C@@H](N)C(C)C)C(=O)N[C@@H](C)C(=O)N[C@@H](Cc1ccc(O)cc1)C(=O)N[C@H](C(=O)N[C@@H](CCSC)C(=O)N[C@@H](C)C(=O)NCC(=O)N[C@H](C(=O)O)C(C)C)C(C)C (H-VMAYVMAGV-OH; N-terminus and C-terminus assumed) | 16.5 | 2 | – |
| CC(C)C[C@H](NC(=O)[C@@H](N)CCCCN)C(=O)NCC(=O)NCC(=O)NCC(=O)N[C@@H](CCC(N)=O)C(=O)N[C@@H](Cc1c[nH]cn1)C(=O)NCC(=O)N[C@@H](CCC(=O)O)C(=O)N[C@H](C(=O)O)C(C)C (H-KLGGGQHGEV-OH; N-terminus and C-terminus assumed) | 0.4 | – | IC50 (HLA-A02.01 [2]; [5]): 387 nM |
| CC[C@H](C)[C@H](NC(=O)[C@@H](NC(=O)[C@H](CC(C)C)NC(=O)[C@@H](NC(=O)[C@@H]1CCCN1C(=O)[C@H](CCCNC(=N)N)NC(=O)[C@H](CCC(N)=O)NC(=O)[C@H](CC(N)=O)NC(=O)[C@H](CCSC)NC(=O)CN)[C@@H](C)CC)[C@@H](C)O)C(=O)O | 0.4 | 709 | – |
| CC[C@H](C)[C@H](NC(=O)[C@@H](NC(=O)[C@H](CC(C)C)NC(=O)[C@@H](NC(=O)[C@@H]1CCCN1C(=O)[C@H](CCCNC(=N)N)NC(=O)[C@H](Cc1c[nH]c2ccccc12)NC(=O)[C@H](CC(N)=O)NC(=O)[C@H](CCSC)NC(=O)CN)[C@@H](C)CC)[C@@H](C)O)C(=O)O | 0.5 | 282 | – |
| CC(C)[C@H](N)C(=O)N[C@H](C(=O)N1CCC[C@H]1C(=O)N[C@@H](CS)C(=O)N[C@@H](CCC(=O)O)C(=O)N1CCC[C@H]1C(=O)N1CCC[C@H]1C(=O)N[C@@H](CCC(=O)O)C(=O)N[C@H](C(=O)O)C(C)C)C(C)C | 0.9 | 187 | – |
| CC(C)C[C@H](NC(=O)[C@H](Cc1ccccc1)NC(=O)[C@@H](NC(=O)[C@H](Cc1ccc(O)cc1)NC(=O)[C@@H](NC(=O)CN)C(C)C)[C@@H](C)O)C(=O)N1CCC[C@H]1C(=O)N[C@@H](CO)C(=O)N[C@H](C(=O)O)[C@@H](C)O (H-GVYTFLPST-OH; N-terminus and C-terminus assumed) | 1.3 | 779 | – |
| CC(C)C[C@H](NC(=O)[C@H](CC(C)C)NC(=O)[C@@H](NC(=O)[C@H](CC(=O)O)NC(=O)[C@H](C)NC(=O)[C@H](CC(C)C)NC(=O)[C@@H](N)CS)C(C)C)C(=O)N[C@@H](CO)C(=O)N[C@H](C(=O)O)C(C)C (H-CLADVLLSV-OH; N-terminus and C-terminus assumed) | 24 | 219 | – |
| CSCC[C@H](NC(=O)[C@H](CC(C)C)NC(=O)[C@H](CCC(=O)O)NC(=O)[C@H](CCSC)NC(=O)[C@@H](N)CC(C)C)C(=O)N[C@@H](C)C(=O)NCC(=O)NCC(=O)N[C@@H](CC(=O)O)C(=O)N[C@@H](CC(C)C)C(=O)O (H-LMELMAGGDL-OH; N-terminus and C-terminus assumed) | 8.9 | 311 | – |
| CC(C)[C@H](NC(=O)[C@H](CO)NC(=O)[C@H](Cc1ccccc1)NC(=O)[C@H](Cc1ccccc1)NC(=O)[C@H](Cc1ccccc1)NC(=O)[C@H](Cc1ccccc1)NC(=O)[C@H](CS)NC(=O)[C@@H](NC(=O)[C@@H](N)CO)C(C)C)C(=O)O | 9.4 | 175 | – |
| CC[C@H](C)[C@H](N)C(=O)N[C@@H](CCSC)C(=O)N[C@@H](CCC(N)=O)C(=O)N[C@@H](CC(C)C)C(=O)N[C@@H](CCSC)C(=O)N1CCC[C@H]1C(=O)N[C@@H](Cc1ccccc1)C(=O)NCC(=O)N[C@@H](CS)C(=O)O (H-IMQLMPFGC-OH; N-terminus and C-terminus assumed) | 0.4 | 1610 | Stability (half-life (hr.)) (HLA-A02.01 [1]; EGFR T790M peptides, HLA allele A02.01): 22.21 min; pKd (HLA-A02.01 [2]; EGFR T790M peptides, HLA allele A02.01, read-out: Affinity): 5.92 |
| CC(C)C[C@H](N)C(=O)N[C@H](C(=O)N[C@H](C(=O)N[C@H](C(=O)NCC(=O)N[C@@H](C)C(=O)N[C@@H](CC(=O)O)C(=O)NCC(=O)N[C@H](C(=O)O)C(C)C)C(C)C)C(C)C)C(C)C (H-LVVVGADGV-OH; N-terminus and C-terminus assumed) | – | – | Measured stability (HLA-A02.01 [1]): 0.0 h; IC50 (HLA-A02.01 [2]; [4]): 977 nM; IC50 (HLA-A02.01 [2]; [5]): 1190 nM |
| CC[C@H](C)[C@H](NC(=O)[C@H](CC(C)C)NC(=O)[C@H](Cc1c[nH]cn1)NC(=O)[C@@H](NC(=O)[C@H](CO)NC(=O)[C@H](CC(C)C)NC(=O)[C@H](CC(C)C)NC(=O)[C@@H](N)C(C)C)C(C)C)C(=O)N[C@H](C(=O)O)C(C)C (H-VLLSVHLIV-OH; N-terminus and C-terminus assumed) | 11 | 72 | – |
| CSCC[C@H](NC(=O)[C@H](CCC(=O)O)NC(=O)[C@H](CC(C)C)NC(=O)[C@H](CC(C)C)NC(=O)[C@H](CC(C)C)NC(=O)CNC(=O)[C@H](Cc1ccc(O)cc1)NC(=O)[C@H](CC(C)C)NC(=O)[C@@H]1CCCN1)C(=O)O (H-PLYGLLLEM-OH; N-terminus and C-terminus assumed) | 0.7 | 640 | – |
| CC[C@H](C)[C@H](NC(=O)[C@H](CC(N)=O)NC(=O)[C@@H](N)CCSC)C(=O)N[C@@H](C)C(=O)N[C@@H](CC(N)=O)C(=O)N[C@@H](CC(C)C)C(=O)N[C@@H](CC(C)C)C(=O)NCC(=O)N[C@@H](C)C(=O)O (H-MNIANLLGA-OH; N-terminus and C-terminus assumed) | 0.3 | – | IC50 (HLA-A02.01 [2]; [5]): 128 nM |
| LQMDFLVEIPA | 1.5 | 68 | – |
| CC(C)C[C@H](NC(=O)CN)C(=O)N[C@@H](CC(C)C)C(=O)N[C@@H](C)C(=O)N[C@@H](Cc1ccccc1)C(=O)N[C@@H](Cc1c[nH]c2ccccc12)C(=O)N[C@@H](CC(=O)O)C(=O)N[C@@H](CO)C(=O)N[C@@H](CCC(N)=O)C(=O)N[C@H](C(=O)O)C(C)C (H-GLLAFWDSQV-OH; N-terminus and C-terminus assumed) | 14.2 | 10 | – |
